According to patent publication US20100221821A1, “METHODS AND COMPOSITIONS RELATED TO RIBOSWITCHES THAT CONTROL ALTERNATIVE SPLICING AND RNA PROCESSING” (YALE UNIVERSITY, priority 2007, published 2010):
Read-outs that look alike come from different tables or passages of the source.

Legend:
[1] = target: full-length TPP aptamer from A. thaliana; details: read-out: apparent dissociation constant (KD) of full-length aptamer for TPP; cited from earlier work
[2] = system: altered TPP aptamer in THIC-III RNA from A. thaliana; experiment: In-line probing of TPP binding by the spliced (altered) TPP aptamer of THIC type III RNA; set-up: species or system Arabidopsis thaliana
Text: (B) In-line probing analysis of TPP binding by the spliced aptamer depicted in (A). Lanes include RNAs loaded after no reaction (NR), after partial digestion with RNase T1 (T1), or after partial digestion with alkali (^−OH). Sites 1 and 2 were quantified to establish the KD as shown in (C). (C) Plot indicating the normalized fraction of RNA spontaneously cleaved versus the concentration of TPP for sites 1 and 2 in (B).
In-line probing (Soukup and Breaker, 1999) was used to determine whether this altered aptamer retains TPP binding activity.
In-line probing assays were conducted essentially as described previously (Sudarsan et al., 2003; Winkler et al., 2002). […] For in-line probing analysis, the labeled RNA was incubated at room temperature for 40 hours in 50 mM Tris-HCl (pH 8.3 at 23° C.), 20 mM MgCl2, and 100 mM KCl in the absence or presence of varying concentrations of TPP. Cleavage products were resolved by denaturing 10% PAGE, visualized by PhosphorImager (GE Healthcare), and quantitated using ImageQuant software. The apparent KD value, reflecting the concentration of TPP needed to half-maximally modulate RNA structure, was determined by plotting the normalized fraction of RNA cleaved versus the logarithm of TPP concentration.

[3] = system: TPP aptamer with 5' splice site region of THIC mRNA from A. thaliana; experiment: In-line probing of TPP aptamer with 5' flank (nts -14-261 relative to 5' splice site); type: binding, Arabidopsis thaliana; details: 10 μM TPP
Method: (A) TPP causes changes in RNA structure near to the 5′ splice site, which is important for the formation of THIC type III RNA. For in-line probing, a 5′ ^32P-labelled RNA starting 14 nts upstream of the 5′ splice site (+1) and expanding to the 3′ end of the TPP aptamer (nucleotides-14-261) from A. thaliana was incubated in the absence (−) or presence (+) of 10 μM TPP and the resulting spontaneous cleavage products were separated by polyacrylamide gel electrophoresis. Markers are RNAs partially digested with RNase T1 (T1) or alkali (^−OH). The graph depicts the relative band intensities in the lanes indicated. (B) Base-pairing potential between the 5′ splice site region and the P4-P5 stems of the TPP aptamer (SEQ ID NOs:34-47; complementary nucleotides are shaded). Stretches of complementary nucleotides are also present in all other plant THIC mRNA sequences available. […]
In-line probing assays were conducted essentially as described previously (Sudarsan et al., 2003; Winkler et al., 2002). […] Cleavage products were resolved by denaturing 10% PAGE, visualized by PhosphorImager (GE Healthcare), and quantitated using ImageQuant software. The apparent KD value, reflecting the concentration of TPP needed to half-maximally modulate RNA structure, was determined by plotting the normalized fraction of RNA cleaved versus the logarithm of TPP concentration.

[4] = system: THIC TPP riboswitch (3' region of AtTHIC fused to EGFP)
Method: (A) Leaves from stably transformed A. thaliana lines expressing a reporter fusion of the complete 3′ region of AtTHIC fused to the 3′ end of EGFP were abscised and incubated with the petioles in water or in water supplemented with 0.02% thiamin. EGFP fluorescence was assessed at 0 h, 48 h, and 72 h after onset of treatment. One representative set of data from three repeats is shown, and the numbers identify different leaves from one transgenic line. (B) Quantitation of EGFP fluorescence of leaves depicted in (A) at three time points. The data represent average fluorescence intensity and standard deviation for each leaf. The plot also depicts average background fluorescence of WT leaves. (C) qRT-PCR analysis of total EGFP and THIC transcripts from leaves incubated for 72 h in water or 0.02% thiamin. Transcript amounts were standardized to an internal reference transcript and normalized to transcript abundance in water treated samples. Values are averages from four independent experiments using different transgenic lines and error bars represent standard deviation. (D,E) RT-PCR analysis of different 3′ UTRs of EGFP and THIC transcript types from A. thaliana reporter transformants grown in the absence of exogenous thiamin. For cDNA generation, a polyT primer, random hexamers or two different gene specific primers (binding either 221 or 882 nts downstream of the end of the aptamer) were used as indicated. The forward primers were specific for the end of the last exon of the coding region of EGFP (left) or THIC (right), whereas the reverse primer was either a polyT primer (D) or homologous to a region 221 nts downstream of the end of the aptamer (E). RT-PCR products were separated and visualized as described in the description of FIG. 2. M designates the marker lanes containing DNAs of 100 base-pair increments. No RT indicates a control reaction using the RNA without reverse transcription as a template source. I-1 and I-2 represent type I RNAs with the upstream intron following the stop codon unspliced or spliced, respectively.
(A) Secondary structure model and sequence of the WT TPP aptamer from A. thaliana genomic sequence and located in the 3′ region of THIC that was fused to EGFP (SEQ ID NOs: 32 and 33). […] (B) Quantitation of EGFP fluorescence in leaves from A. thaliana transformants expressing reporter constructs containing the WT aptamer sequence or mutated versions M2, M3 and M4. Leaves were excised and incubated with their petioles in water or 0.02% thiamin for 72 h before fluorescence analysis. Values are averages from at least three independent experiments using different transgenic lines. Error bars represent standard deviation. (C) qRT-PCR analyses of EGFP and THIC transcript amounts in A. thaliana transformants described in (B). Transcript amounts (standardized using a reference transcript) were normalized to transcript abundance in water treated samples. Values are averages from two to four independent experiments using different transgenic lines. Error bars represent standard deviation. (D,E) RT-PCR analyses of 3′ UTRs of EGFP and THIC transcripts from A. thaliana transformants with mutations M2 or M3. RT-PCR analyses were performed as described in the description of FIGS. 5D and 5E. Forward primers were homologous to the end of the last exon of the coding region of EGFP or THIC, and the reverse primer was a polyT primer (D) or complementary to a region 221 nts downstream of the end of the aptamer (E). Kbp designates kilobase pairs.

[5] = system: THIC promoter from A. thaliana; details: 100 μM thiamin, 9 day old seedlings
Text: A construct consisting of a 1595 by fragment of the THIC promoter from A. thaliana was fused to the reporter gene β-glucuronidase (GUS) and transformed into A. thaliana. […] Data are mean values from three different transgenic lines and from three independent experiments. Error bars represent standard deviation.

THIC transcripts [6] = details: seedlings on thiamin-supplemented medium
Method: (§1) (A) qRT-PCR analysis was conducted on THIC transcripts from A. thaliana seedlings grown for 14 days on medium supplemented with 0, 0.1, and 1 mM thiamin. Total THIC transcripts and separately types I, II and III RNAs were detected using different primer combinations. cDNAs were generated using a polyT primer or random hexamers for detection of type I RNAs. Expression was normalized for each primer combination to the value measured using medium with no thiamin supplementation (open bars). Values are averages from three independent experiments and error bars represent standard deviation. (B) Northern blot analysis of THIC transcripts from the same samples described in (A). 20 μg total RNA was loaded per lane and analyzed using probes binding to the coding region of THIC, the extended 3′ UTR of types I and III RNAs, or the control transcript EIF4A1. […] (C) qRT-PCR analysis of the time-dependent effects of thiamin treatment on THIC transcripts from A. thaliana. Seedlings were grown for 14 days on thiamin free medium and subsequently sprayed with 50 μM thiamin and 0.25 mg ml^−1 Tween 80. Control seedlings were treated with a solution containing only Tween 80. Samples were collected after 4 h and 26 h and subjected to qRT-PCR analysis. Amounts of THIC transcripts were analyzed from cDNAs generated with polyT primer and normalized to the values of the control samples without application of thiamin (open bars). Values are averages from three independent experiments and error bars represent standard deviation. (D) Relative changes of the levels of THIC transcript types in wild-type (WT) and thiamin pyrophosphokinase double knockout (TPK-KO) A. thaliana plants. Seedlings were grown for 12 days on thiamin free medium and amounts of THIC transcript types were analyzed by qRT-PCR. Data were normalized to the values for the WT samples and reflect averages from three replicates, with error bars representing standard deviation.

THIC transcripts [7] = system: THIC transcripts
Method: as §1
(A) qRT-PCR analysis of total THIC transcripts from plants incubated for 48 h under continuous light. Plants were grown for 11 days in light/dark cycles (16/8 h) on medium without thiamin or medium supplemented with 100 μM thiamin. On the morning of the 12th day, plants were transferred to continuous light and samples were taken every 3 hours. Expression was normalized to the value of the sample at time point 0 from plants grown on thiamin free medium. Error bars represent standard deviation of triplicate qRT-PCR analyses. […] (B) qRT-PCR analysis of THIC type III RNAs. Plant material and data normalization are as described for (A).
The amount of THIC transcripts was established by using quantitative RT-PCR (qRT-PCR) to address whether transcript levels respond to increased thiamin concentrations. A. thaliana seedlings were supplemented with various amounts of thiamin and the different THIC transcript types were detected using specific primer combinations. The primer combination amplifying THIC-II also can bind to a subset of THIC-I RNAs that have undergone splicing of the first 3′ UTR intron.
Arabidopsis thaliana ecotype Columbia-0 plants were grown with soil at 23° C. in a growth chamber under 16/8 h (light/dark) photoperiod with 60% humidity unless otherwise stated. For seedling experiments, plants were grown on basal MS medium (Murashige and Skoog, 1962) supplemented with 2% sucrose and varying concentrations of thiamin and under continuous light unless otherwise specified. N. benthamiana plants for leaf infiltration assays were grown on soil for 3 to 5 weeks under continuous light.

[8] = 26 h after spraying with 50 μM thiamin
[9] = four hours after spraying seedlings with 50 μM thiamin

For `Cc1ncc(C[n+]2csc(CCO[P@](=O)(O)OP(=O)(O)O)c2C)c(N)n1` [TPP, thiamine pyrophosphate], the Kd [1] is given as roughly 0.05 µM, the “loss in ligand-binding affinity versus full-length aptamer” value ([2]; altered aptamer vs full-length aptamer) is given as “more than three orders of magnitude” and the Kd ([2]; in-line probing, spliced aptamer of THIC-III, read-out: apparent KD of the altered aptamer for TPP) is given as roughly 60 µM. For the same molecule, the “TPP binding by mutant M1 of the altered aptamer” value ([2]; mutation M1 in type III construct) was “completely abolish TPP binding”, the “TPP binding by mutant M2 of the altered aptamer” value ([2]; mutation M2 in type III construct) was “completely abolish TPP binding” and the “structural modulation of nucleotides near the 5' splice site” value [3] was “increase in structural flexibility”.
With `Cc1ncc(C[n+]2csc(CCO)c2C)c(N)n1` [thiamin] the “amount of endogenous THIC transcripts relative to control levels” value ([4]; 0.02% thiamin, 72 h, qRT-PCR) was “approximately 20%”, the “amount of EGFP transcripts relative to control levels” value ([4]; WT construct, 0.02% thiamin, 72 h, qRT-PCR) was “approximately 20%” and the “EGFP fluorescence in leaves” value ([4]; WT construct, 0.02% thiamin, rosette stage leaves) was “decreased”. The “responsiveness of reporter to thiamin application compared to WT construct” value (shortened to “responsiveness … compared to WT construct”) ([4]; mutant aptamer M2, 0.02% thiamin 72 h) was “reduced”, the “responsiveness … compared to WT construct” value ([4]; mutant aptamer M3, 0.02% thiamin 72 h) was “complete loss” and the “responsiveness … compared to WT construct” value ([4]; mutant aptamer M4, 0.02% thiamin 72 h) was “complete loss”. For the same molecule, the “binding to the altered aptamer” value ([2]; data not shown) was “does not bind”, the “expression of reporter gene (GUS) driven by the THIC promoter” value [5] was “not altered” and the “THIC-I RNA levels (Northern blot)” value (THIC transcripts [6]) was “remain relatively unchanged”. The “THIC-III RNA levels (Northern blot)” value (THIC transcripts [6]) was “remain relatively unchanged”, the “THIC-II levels (Northern blot)” value (THIC transcripts [6]; same samples as FIG. 3A) was “decrease” and the THIC-II level (THIC transcripts [7]; [8]) was “decreased even further”. For the same molecule, the “total THIC RNA level” value (THIC transcripts [7]; [8]) was “decreased even further”, the “increase in THIC-III” value (THIC transcripts [7]; after spraying with 50 μM thiamin, early phase (4 h)) was “more pronounced in the early phase” and the “THIC-II amount relative to absence of added thiamin” value (THIC transcripts [7]; [9]) was 50%. For the same molecule, the “total THIC RNA amount relative to absence of added thiamin” value (THIC transcripts [7]; [9]) was 50%, the “THIC-I transcripts copy number” value (THIC transcripts [7]; medium containing 1 mM thiamin) was “little or no change” and the THIC-II transcripts (THIC transcripts [7]; medium containing 1 mM thiamin) was “equivalent reduction”. For the same molecule, the “THIC-III transcripts copy number” value (THIC transcripts [7]; medium containing 1 mM thiamin) was “little or no change”, the “circadian rhythm of THIC expression” value (THIC transcripts [7]; medium supplemented with 100 μM thiamin, continuous light 48 h) was “not affected” and the “total amount of THIC transcripts relative to seedlings grown without thiamin supplementation” value (THIC transcripts [7]; seedlings grown on medium containing 1 mM thiamin, 14 days) was “approximately 20%”.
